“Also recorded” adds a separate entry of the source. No end group written: not given here.
Key:
[1] = test system: DMC1 V179E-ssDNA filaments; assay: EMSA, super-shift of filaments formed using DMC1 V179E; format: biochemical, human
Method: (§1) To form nucleoprotein filaments, DMC1 and RAD51 was incubated with fluorescent 100-base ssDNA (5’-FAM- […]-3’) at the concentrations indicated in the figures for 30 minutes at 4 °C in reaction buffer. For DMC1, reaction buffer is 25 mM TEA (triethanolamine) pH 7.5, 1 mM ATP, 2 mM MgCl2, 0.1 mg/ml BSA, 2 mM DTT, 200 mM KCl. For RAD51, reaction buffer is 50 mM TEA (triethanolamine), 2 mM ATP, 0.5 mM MgCl2, 2 mM DTT. For assays requiring incomplete nucleoprotein filament assembly, the reaction buffer consisted of 50 mM TAE (tris, acetate, EDTA) pH 7.5, 2 mM ATP, 2 mM MgCl2, 2 mM DTT. In nucleoprotein formation stimulation assays or supershift experiments, BRCA2Ex14 or BRCA2Ex14-AAA were added for a further 30 min at 4 °C. […] Glycerol was added at a final concentration of 3%, and samples were analysed by electrophoresis on a 1% (w/v) (for DMC1) or 0.66% (w/v) (for RAD51) agarose gel in 0.5x TAE pH 8.0 at 20–40 V for ~4 h at 4 °C. DNA was detected by FAM using a Typhoon^TM FLA 9500 (GE Healthcare), with 473 nm laser at excitation wavelength 490 nm and emission wavelength 520 nm, using the LPB filter and a PMT voltage of 500 V. To analyse RAD51 nucleoprotein filaments assembled upon 100-base poly(dT) ssDNA, gels were stained post-run using SYBR^TM Gold Nucleic Acid Gel Stain (Invitrogen) and detected using a Typhoon^TM FLA 9500 (GE Healthcare).

[2] = test system: DMC1-ssDNA filaments; assay: EMSA, protection of DMC1-ssDNA filaments from BRC4-mediated disruption; format: biochemical, human; details: 10-fold excess of BRC4
Method: Finally, we tested whether binding of BRCA2 Ex14 protects DMC1-ssDNA nucleoprotein filaments from BRC4-mediated disruption (Fig. 3c). […] Further, whilst the core PhePP interaction site is sufficient to stimulate DMC1-ssDNA nucleoprotein filament formation, surrounding amino-acids that are present within Ex14 (but not Ex14-Tr) are necessary to super-shift filaments and confer protection from BRC4-mediated disruption.
as §1

[3] = test system: DMC1-ssDNA filaments; assay: EMSA, stimulation of DMC1-ssDNA filament formation (TAE pH 7.5); format: biochemical, human; details: TAE pH 7.5
From the text: (§2) What is the function of the BRCA2 Ex14-DMC1 interaction? We used electrophoretic mobility shift assays (EMSAs) to determine the impact of BRCA2-binding on DMC1 nucleoprotein filaments. We used two different conditions for nucleoprotein filament assembly. Firstly, a TAE (tris, acetate, EDTA; pH 7.5) buffer that was previously used for RAD51-ssDNA filaments, in which DMC1-ssDNA filaments were partially formed at the canonical ratio of three nucleotides to one protomer (Fig. 3a). Secondly, a TEA (triethanolamine; pH 7.5) + KCl buffer based on previous DMC1 studies[36]–[38], in which DMC1-ssDNA filament formation was more complete at the canonical ratio (Fig. 3b). […] This was noticeable using Ex14 in equimolar amounts (11 μM), and became substantial at a 5-fold stoichiometric excess (55 μM) (Fig. 3b). As the KD of the DMC1-Ex14 interaction is approximately 30 μM (Fig. 2a), the requirement for a stoichiometric excess is likely due to binding being favoured at Ex14 concentrations above the KD.
as §1

[4] = test system: DMC1-ssDNA filaments; assay: EMSA, super-shift of DMC1-ssDNA filaments (TEA pH 7.5 + KCl); format: biochemical, human
From the text: as §2, §1

[5] = test system: DMC1 ΔN F85E; assay: Amylose pull-down of His-DMC1 ΔN F85E (monomeric) with MBP-BRCA2 fusions; format: binding, human; details: lysates mixed; MBP-BRCA2 fusion; 20 mM Tris pH 8.0, 500 mM KCl, 2 mM DTT
Method: For affinity experiments involving DMC1 ΔN V179E and F85E, MBP-fusions of BRCA2 fragments (Ex14, amino-acids 2387-2420, Ex14-Tr, amino acids 2401-2414, BRC4, amino acids 1519-1551) were cloned into pMAT11 vectors and DMC1 ΔN mutants (V179E or F85E) were cloned into pHAT4 vectors. Lysates of bacterial cultures expressing His6-DMC1 mutants or MBP-BRCA2 constructs were mixed, and complexes were purified through amylose affinity chromatography in 20 mM Tris pH 8.0, 500 mM KCl, 2 mM DTT and eluted using 30 mM D-maltose.

[6] = test system: RAD51-ssDNA (polydT) filaments; assay: EMSA, protection of RAD51-ssDNA (polydT) filaments from BRC4-mediated disruption; format: biochemical
Method: as §1

[7] = test system: RAD51-ssDNA filaments; assay: EMSA, protection of RAD51-ssDNA filaments from BRC4-mediated disruption (random sequence ssDNA); format: biochemical; details: 100-nt random ssDNA; 10-fold excess of Ex27
Method: as §1

[8] = test system: RAD51; details: cited from earlier work
From the text: BRCA2 interacts with RAD51 and DMC1 recombinases through BRC repeats and PhePP motifs (Fig. 1a)[21],[25]–[28]. The eight BRC repeats, located within BRCA2’s central exon 11 region, bind to RAD51 and DMC1 with various affinities[25],[29],[30]. […] The first loop consists of amino-acids 147-GAGGYPG-153 in DMC1 and 148-IDRGGGE-154 in RAD51 (herein referred to as PhePP-binding loop A; Fig. 1d), and is one of the most divergent regions between DMC1 and RAD51 (Supplementary Fig. 4). The second loop consists of amino-acids 178-NVDHDA-183 in DMC1 and 179-GLSGSD-184 in RAD51 (herein referred to as PhePP-binding loop B; Fig. 1e), in which residues V179 (DMC1) and L180 (RAD51) substantially contribute to the PhePP-binding pocket. ...

Row | Substance | super-shift of DMC1 V179E-ssDNA filaments [1] | protection of DMC1-ssDNA filaments from BRC4-mediated disruption ([2]; 5-fold excess (55 μM) peptide) | protection of DMC1-ssDNA filaments from BRC4-mediated disruption ([2]; TEA pH 7.5 + KCl, Ex14 10-fold stoichiometric excess (110 μM)) | protection of DMC1-ssDNA filaments from BRC4-mediated disruption ([2]; equimolar (11 μM) peptide) | stimulation of DMC1-ssDNA filament formation upon changing order of addition ([3]; Ex14 added after DMC1-ssDNA, with DMC1 prior to ssDNA, or with ssDNA prior to DMC1) | stimulation of DMC1-ssDNA nucleoprotein filament formation ([3]; 100-nt random ssDNA, 4 °C, canonical ratio of three nucleotides to one protomer, equimolar for Ex14) | super-shift of pre-formed DMC1-ssDNA filaments ([4]; 5-fold stoichiometric excess (55 μM)) | super-shift of pre-formed DMC1-ssDNA filaments ([4]; 100-nt random ssDNA, 4 °C) | super-shift of pre-formed DMC1-ssDNA filaments ([4]; equimolar (11 μM)) | binding in pull-down [5] | protection of RAD51-ssDNA (polydT) filaments from BRC4-mediated disruption ([6]; 3-fold excess of Ex27 (33 μM), 10-fold excess of BRC4) | protection of RAD51-ssDNA (polydT) filaments from BRC4-mediated disruption ([6]; 100-nt polydT, 10-fold excess of Ex27) | protection of RAD51-ssDNA filaments from BRC4-mediated disruption ([6]; equimolar Ex27 (11 µM), 10-fold excess of BRC4) | protection of RAD51-ssDNA filaments from BRC4-mediated disruption [7] | selective binding to RAD51 ([8]; ref [21],[27],[32]) | binding to RAD51 filaments versus monomers ([8]; ref [33],[34])
1 | ATRNEKMRHLITTGRPTKVFVPPFKTKSHFHRVE [Ex14] | The residual super-shift was the same; also recorded: only minimal super-shift | complete protection | protected against BRC4-mediated disruption; also recorded: protected filaments from disruption | some protection | same degree; also recorded: same stimulation; also recorded: order of addition did not affect | stimulates DMC1-ssDNA nucleoprotein filament assembly, achieving complete DMC1-ssDNA filament formation; also recorded: promoted the formation of DMC1-ssDNA filaments | substantial | inducing a super-shift; also recorded: induced a super-shift | noticeable | failed to interact; also recorded: no interaction | – | – | – | – | – | –
2 | Ex27: BRCA2 exon 27 PhePP peptide, amino acids 3270-3315 (ALDFLSRLPLPPPVSPICTFVSPAAQKAFQPPRSCGTKYETPIKKK; UniProt P51587 3270-3315, looked up, fragment) | – | – | – | – | – | – | – | – | – | – | some protection; also recorded: protection at a 3-fold excess | protects; also recorded: full protection; also recorded: complete protection | no protection | less complete; also recorded: not complete; also recorded: protected against BRC4-mediated disruption | bind selectively to DMC1 and RAD51, respectively | binds to RAD51 filaments, rather than monomers
